US7670838B2, “Coupling of excitation and neurogenesis in neural stem/progenitor cells” (priority 2004, dated 2010)
Entries after “also recorded” stand apart in the source; their conditions may differ.

Tests used:
[1] = tested on: adult hippocampal NPCs in vivo; assay: In vivo neurogenesis assay (BrdU labeling, hippocampus); set-up: species or system rat; conditions: for neuronal fraction of newborn cells: 1 mg/kg
[2] = rat, in vivo
[3] = tested on: adult rat hippocampal NPCs; assay: Neurogenesis from adult NPCs in living hippocampal coculture (MAP2ab); type: cell-based
Description: (§1) Stem cell coculture. […] Mitotic inhibitor FUDR (5-fluoro-2′-deoxyuridine) was included with uridine at 0.3 mM unless otherwise indicated at the start of the sixth day post-plating, after cell cycle exit and initiation of differentiation, to allow for long term culture (in some experiments 50 μM D-AP5 (RBI) was also included as noted in the text). Thereafter cultures were supplemented with NT3 to 20 ng/mL every 2-3 days until cocultures were 9-16 days old (control and experimental conditions were always conducted in parallel and therefore were age-matched at all times), at which point neurogenesis assays were performed.
(§2) Excitation of NPCs in coculture. […] Divalent cation concentration was maintained constant in external calcium variation experiments by replacement with equimolar magnesium. […] Persistent stimuli were used except where noted, to mimic areas of local persistent high activity and to avoid rebound or washoff effects. […] An advantage of using depolarization for these brief stimuli is that the logarithmic dependence of depolarization on extracellular potassium described by the Nernst equation obviates the need for extensive washing of the stimulated sample prior to reapplication of the control medium.
(§3) Immunocytochemistry and transfection. Cells were fixed in 4% formaldehyde (EM Sciences)/PBS for 20-30 min, washed 3×5 min in PBS/0.1 M glycine, permeabilized for 5 min in 0.1% Triton/PBS/3% BSA, washed 3×5 min in PBS/glycine, blocked for 1-2 hr in PBS/3% BSA, and incubated overnight at 4° C. in PBS/3%BSA/primary antibodies. Cells were then washed 3×5 min in PBS, incubated for 1 hr at 37° C. in PBS/3%BSA/secondary antibodies, washed 3×10 min in PBS, and mounted in Fluoromount (Electron Microscopy Sciences). TUNEL staining was performed with Apoptag Red (Serologicals). […] Cotransfections were carried out with Lipofectamine 2000 according to the manufacturer's instructions immediately after NPC plating. […] As with all experiments, stimulation or control conditions were initiated 24 hr after transfection on Day 1.
Confocal imaging and analysis. Images were acquired on a Zeiss LSM confocal microscope. Random fields containing GFP+ cells were selected for acquisition under GFP excitation without knowledge of experimental condition, and subsequently scanned using laser lines appropriate to excite the fluorophores corresponding to MAP2ab and other antigens. Data were analyzed using Metamorph software from Universal Imaging. […] Mean data from 12 independent experiments conducted with potassium depolarization were used as the reference point for effects of pharmacological interventions in coculture. For evaluation of proliferation and survival effects, daily cell counts as well as TUNEL and BrdU staining were performed in parallel stimulated and unstimulated cultures. BrdU was applied to cultures at 5 μM for 2 hr, and BrdU staining was conducted with a 20-30 min postfixation and subsequent incubation at 37° C. for 20-30 min in 1 N HCl. For Ca^2+ imaging, x-Rhod-1 AM (Molecular Probes) was loaded at 10 μM for 30 min at 37° C. into cells on the fixed coculture substrate 1-2 days after initiation of mitogen taper.

adult hippocampal NPCs = assay: Neurogenesis from adult NPCs on ethanol-fixed hippocampal substrate (MAP2ab); type: cell-based, rat; conditions: for neurogenesis with the agonist as stimulus: FPL 64176 5 μM, NMDA 50 μM
Description: Hippocampal cell culture. […] Tissue was treated with papain (20 U/ml) in 10 ml of this solution with additional (in mM) 1.7 cysteine, 1 CaCl2, and 0.5 EDTA for 45 min at 37° C. The digestion was stopped by replacing the solution with 10 ml of MEM/Earle's salts without L-glutamine along with 20 mM glucose, Serum Extender (1:1000), and 10% heat-inactivated fetal bovine serum containing 25 mg of bovine serum albumin (BSA) and 25 mg of trypsin inhibitor. The tissue was triturated in a small volume of this solution with a fire-polished Pasteur pipette, and ˜100,000 cells in 1 mL plated per coverslip in 24-well plates. Glass coverslips (pre-washed overnight in HCl followed by several 100% EtOH washes and flame sterilization) were coated overnight at 37° C. with 1:50 Matrigel (Collaborative Biomedical Products, Bedford, Mass.). Cells were plated in culture medium, Neurobasal containing 2× B-27 (Life Technologies) and 2 mM Glutamax-I (Life Technologies). […] For lightly fixed tissue experiments, stem/progenitor cells were plated after hippocampal cultures at 7 DIV were exposed to 70% EtOH at −20° C. for 30 min, then washed 2× in sterile PBS.
as §1, §2, §3
Confocal imaging and analysis. Images were acquired on a Zeiss LSM confocal microscope. Random fields containing GFP+ cells were selected for acquisition under GFP excitation without knowledge of experimental condition, and subsequently scanned using laser lines appropriate to excite the fluorophores corresponding to MAP2ab and other antigens. Data were analyzed using Metamorph software from Universal Imaging.

[4] = Tolerability of treatments in the in vivo neurogenesis assay; conditions: 4 mg/kg
[5] = tested on: voltage-activated Na+ current; type: cell-based, rat
[6] = tested on: adult rat hippocampal NPCs; assay: Miniature EPSC recording of NPC progeny in coculture; type: cell-based; conditions: living coculture
[7] = tested on: proliferating adult-derived NPCs; type: cell-based, rat; conditions: fixed substrate; x-Rhod-1
[8] = rats, 1 mg/kg for 1 week, 30 days after treatment
[9] = anti-mitotic agent added at day 1
[10] = adult rats, 4 mg/kg daily for 1 week, not statistically significant

Structure (SMILES): COC(=O)C1=C(C)NC(C)=C([N+](=O)[O-])C1c1ccccc1C(F)(F)F (centres unmarked) [BayK 8644]
- increase in total newborn cell number versus control [1, 8]: 2.5 fold
- neuronal fraction of newborn cells [1, 8]: 120±11 % of control
- neuronal fraction of newborn cells ([1]; rats, 1 mg/kg for 1 week, 30 days after treatment, listed as BayK): 120%±11%
- total BrdU+ cells per hippocampus (subgranular zone and hilus) ([1]; rats, 1 mg/kg for 1 week, 30 days after treatment, unbiased stereology): 19633±2677
- tolerability [2]: well-tolerated

Structure (SMILES): NC(CCCP(=O)(O)O)C(=O)O [D-AP5]
- neurogenesis in the basal (Na) condition [3]: significant inhibition
- excitation-induced neurogenesis ([3]; depolarization or glutamate, D-AP5 50 μM): blocked
- neurogenesis enhancement by excitation (adult hippocampal NPCs; delayed application of D-AP5 on day 5, n=7): 2.76±0.95 fold
- excitation-induced neurogenesis (adult hippocampal NPCs; fixed substrate, K+ depolarization, nifedipine 10 μM, D-AP5 50 μM): inhibited
- basal neurogenesis (adult hippocampal NPCs; fixed substrate, no stimulation, D-AP5 50 μM): inhibited

Structure (SMILES): COC(=O)c1c(C)[nH]c(C)c1C(=O)c1ccccc1Cc1ccccc1 [FPL 64176]
- neurogenesis with the agonist as stimulus (adult hippocampal NPCs; fixed substrate): enhancement of neurogenesis
- neurogenesis after three 5 min pulses (adult hippocampal NPCs; fixed substrate, pulses on days 1, 3 and 5): enhanced neurogenesis to a similar extent as continuous excitatory stimulation; also recorded: effective
- fraction of newborn (BrdU+) cells assuming the neuronal phenotype (Dcx+) ([1]; adult rats, 4 mg/kg daily for 1 week): relative increase
- overt dystonias [4]: did not lead to overt dystonias
- treated animals that died shortly before sacrifice ([4]; 7th experimental day): two

Structure (SMILES): O=c1[nH]c(=O)n([C@H]2C[C@H](O)[C@@H](CO)O2)cc1F [FUDR, 5-fluoro-2′-deoxyuridine]
- cells killed (adult hippocampal NPCs; [9]): more than 95%
- neurogenic effects of excitation (adult hippocampal NPCs; [9]): abolished

Structure (SMILES): CN[C@H](CC(=O)O)C(=O)O [NMDA]
- neurogenesis with the agonist as stimulus (adult hippocampal NPCs; fixed substrate): significant increase

Structure (SMILES): NC1=N[C@H](O)[C@H]2[C@H]3O[C@]4(O)O[C@@H]([C@@H](O)[C@@]2(N1)[C@@H]4O)[C@]3(O)CO [TTX, Tetrodotoxin]
- inward Na+ current evoked with a step from -70 mV to -10 mV [5]: reversibly blocked

Structure (SMILES): CN1C(=O)CN=C(c2ccccc2)c2cc(Cl)ccc21 [diazepam]
- GFAP/BrdU double-positive cells (astroglial phenotype) ([1]; rat, in vivo, 4 mg/kg): 58.5%
- NG2/BrdU double-positive cells (oligodendroglial phenotype) ([1]; rat, in vivo, 4 mg/kg): 4.7%
- fraction of newborn (BrdU+) cells assuming the neuronal phenotype (Dcx+) ([1]; rat, in vivo, 4 mg/kg): significant reduction

Structure (SMILES): N[C@@H](CCC(=O)O)C(=O)O [glutamate]
- mean MAP2ab intensity in the resulting neuronal progeny [3]: no effect
- fraction of NPCs becoming neurons (MAP2ab+) ([3]; 50 μM glutamate from day 1): increase; also recorded: increased neurogenesis
- fraction of NPCs becoming neurons (MAP2ab+) ([3]; 50 μM glutamate from day 1, listed as Glu): promoted neurogenesis
- fraction of adult NPCs that received functional excitatory synaptic connections (mEPSCs) [6]: increase
- cells showing an increase in intracellular Ca2+ [7]: 44 of 73

Structure (SMILES): COC(=O)C1=C(C)NC(C)=C(C(=O)OC)C1c1ccccc1[N+](=O)[O-] [nifedipine]
- GFAP/BrdU double-positive cells (astroglial phenotype) [1, 10]: 58.8%
- NG2/BrdU double-positive cells (oligodendroglial phenotype) [1, 10]: 3.5%
